IC50 data for 12 compounds are collected here from patent US7160874B2, “Phenylalanine derivatives” (Ajinomoto Co., Inc., priority 1999, dated 2007).

A word on the IC50: it is the concentration needed to halve the response being measured.

Each structure is given as a SMILES string.

The target of one assay is T1, integrin α4β1 (Homo sapiens, UniProt P05556+P13612).
T1 construct: cell strain Jurkat (ATCC TIB-152) of human T cells, known to express integrin α4β1; host or cells: Jurkat (human T cell line)
T1 sequence (P05556 21-798, one chain of several): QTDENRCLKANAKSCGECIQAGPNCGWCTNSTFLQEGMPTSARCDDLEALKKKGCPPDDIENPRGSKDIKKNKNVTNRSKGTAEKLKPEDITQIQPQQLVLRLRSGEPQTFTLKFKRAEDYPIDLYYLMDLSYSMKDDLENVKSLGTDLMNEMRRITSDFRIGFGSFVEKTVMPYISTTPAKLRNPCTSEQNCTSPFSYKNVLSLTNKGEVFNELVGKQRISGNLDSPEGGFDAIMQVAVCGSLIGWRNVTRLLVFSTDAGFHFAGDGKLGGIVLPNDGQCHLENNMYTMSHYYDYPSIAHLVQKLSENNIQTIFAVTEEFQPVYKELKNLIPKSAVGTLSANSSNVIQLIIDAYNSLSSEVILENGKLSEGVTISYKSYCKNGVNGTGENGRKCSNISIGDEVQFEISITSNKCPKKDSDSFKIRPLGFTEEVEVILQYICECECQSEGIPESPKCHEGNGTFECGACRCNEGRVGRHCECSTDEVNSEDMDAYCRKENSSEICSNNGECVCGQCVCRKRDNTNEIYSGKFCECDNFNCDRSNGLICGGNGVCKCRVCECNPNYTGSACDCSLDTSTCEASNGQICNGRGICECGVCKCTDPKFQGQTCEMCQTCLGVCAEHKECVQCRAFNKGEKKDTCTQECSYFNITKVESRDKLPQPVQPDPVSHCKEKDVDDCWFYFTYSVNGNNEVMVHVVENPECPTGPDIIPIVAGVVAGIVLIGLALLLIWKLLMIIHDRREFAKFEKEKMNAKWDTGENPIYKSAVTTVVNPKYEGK
In words: VCAM antagonist activity (VCAM-1/α4β1 binding assay). It is filed as cell-based. To be noted: Jurkat cells binding to VCAM-1; read-out: VCAM antagonistic activity (IC50) α4β1. Summed up: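 Plates coated overnight at 4° C with recombinant human VCAM-1 (500 ng/ml, pH 9.6) and blocked. Calcein-AM-labelled Jurkat cells (α4β1) added with compound in HEPES/DMEM/0.1% BSA, 30 min at room temperature; unbound cells shaken off, bound fluorescence read at 485/535 nm. IC50 from binding relative to compound-free wells.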

For a further assay, the target named is T2, integrin α4β7 (Homo sapiens, UniProt P13612+P26010).
T2 construct: lymphoma cell strain RPMI-8866 of human B cells, known to express integrin α4β7; endogenous in cells; host or cells: RPMI-8866 (human B lymphoma cell line)
T2 sequence (P13612 34-1032): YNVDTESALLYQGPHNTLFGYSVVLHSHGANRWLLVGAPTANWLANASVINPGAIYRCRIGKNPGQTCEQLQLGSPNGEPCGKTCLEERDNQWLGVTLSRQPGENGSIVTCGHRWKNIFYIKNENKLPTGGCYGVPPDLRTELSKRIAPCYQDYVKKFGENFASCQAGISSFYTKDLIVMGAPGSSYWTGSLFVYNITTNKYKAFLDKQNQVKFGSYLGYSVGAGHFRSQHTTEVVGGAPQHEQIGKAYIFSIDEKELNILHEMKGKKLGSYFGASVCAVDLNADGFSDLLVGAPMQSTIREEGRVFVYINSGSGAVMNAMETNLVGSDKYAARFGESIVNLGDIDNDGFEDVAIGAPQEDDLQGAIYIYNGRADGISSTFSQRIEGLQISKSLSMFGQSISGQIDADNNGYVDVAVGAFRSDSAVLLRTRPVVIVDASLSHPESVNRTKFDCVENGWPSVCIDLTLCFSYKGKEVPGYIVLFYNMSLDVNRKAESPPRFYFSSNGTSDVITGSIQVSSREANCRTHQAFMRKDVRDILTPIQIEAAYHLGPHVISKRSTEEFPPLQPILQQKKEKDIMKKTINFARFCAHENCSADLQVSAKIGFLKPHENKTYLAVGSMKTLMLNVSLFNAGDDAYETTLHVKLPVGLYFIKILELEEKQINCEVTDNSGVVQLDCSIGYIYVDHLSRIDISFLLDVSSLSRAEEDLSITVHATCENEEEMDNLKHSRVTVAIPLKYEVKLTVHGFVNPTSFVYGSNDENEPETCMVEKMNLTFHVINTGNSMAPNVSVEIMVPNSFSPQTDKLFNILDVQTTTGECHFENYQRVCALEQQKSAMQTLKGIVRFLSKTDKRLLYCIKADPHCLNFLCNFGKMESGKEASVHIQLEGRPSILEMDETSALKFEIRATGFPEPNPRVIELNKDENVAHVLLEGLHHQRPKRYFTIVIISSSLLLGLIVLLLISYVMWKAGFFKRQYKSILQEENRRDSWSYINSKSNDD
T2 sequence (P26010 20-798): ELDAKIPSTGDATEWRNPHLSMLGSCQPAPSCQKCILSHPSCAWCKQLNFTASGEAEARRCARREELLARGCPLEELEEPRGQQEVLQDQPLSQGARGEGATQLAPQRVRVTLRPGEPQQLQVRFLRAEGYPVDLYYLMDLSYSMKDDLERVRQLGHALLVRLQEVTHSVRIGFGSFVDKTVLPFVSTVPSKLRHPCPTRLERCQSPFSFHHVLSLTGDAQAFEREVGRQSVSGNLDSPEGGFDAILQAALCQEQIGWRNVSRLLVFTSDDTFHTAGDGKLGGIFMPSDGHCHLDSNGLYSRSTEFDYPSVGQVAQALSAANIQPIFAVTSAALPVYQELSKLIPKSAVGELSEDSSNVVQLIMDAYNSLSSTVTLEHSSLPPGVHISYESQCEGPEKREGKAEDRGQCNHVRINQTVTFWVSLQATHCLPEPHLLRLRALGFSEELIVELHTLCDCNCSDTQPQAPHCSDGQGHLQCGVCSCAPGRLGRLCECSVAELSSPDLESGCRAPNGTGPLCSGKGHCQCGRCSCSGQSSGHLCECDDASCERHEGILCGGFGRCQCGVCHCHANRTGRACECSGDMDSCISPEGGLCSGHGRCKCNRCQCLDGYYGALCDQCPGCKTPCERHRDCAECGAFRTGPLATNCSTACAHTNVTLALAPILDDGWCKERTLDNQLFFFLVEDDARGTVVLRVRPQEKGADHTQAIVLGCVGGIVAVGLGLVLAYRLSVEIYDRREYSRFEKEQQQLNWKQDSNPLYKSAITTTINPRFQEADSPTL
The assay is described as follows: VCAM antagonistic activity (VCAM-1/α4β7 binding assay). The format is cell-based. As to conditions: RPMI-8866 cells binding to VCAM-1; read-out: VCAM antagonistic activity (IC50) α4β7. Summed up:
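Calcein-AM-labelled human B-lymphoma RPMI-8866 cells bound to plate-coated recombinant human VCAM-1 in HEPES/DMEM/0.1% BSA with 4 mM MnCl2, with compound, 30 min at room temperature. Unbound cells removed by shaking; bound-cell fluorescence (ex 485/em 535 nm) versus compound-free wells gave IC50, binned.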

Take `CCC(CC)(C(=O)N[C@@H](Cc1ccc(OCc2c(Cl)cccc2Cl)cc1)C(=O)O)C(=O)N1C[C@@H](O)[C@@H](O)C1` [Example 81, N-(2-{[(cis-3,4-dihydroxypyrrolidine)-1-yl]carbonyl}-2-ethyl-butanoyl)-O-(2,6-dichlorobenzyl)-L-tyrosine]: the IC50 on integrin α4β1 was 100 to 2000 nM; at integrin α4β7 it was below 20 nM.

In the case of `CCC(CC)(C(=O)N[C@@H](Cc1ccc(OCc2c(Cl)cccc2Cl)cc1)C(=O)O)C(=O)N1CCCN(C=O)CC1` [Example 61], the IC50 was 100 to 2000 nM on integrin α4β1 and 20 to 100 nM on integrin α4β7.

Consider `O=C1CCN(C(=O)C2(C(=O)N[C@@H](Cc3ccc(OCc4c(Cl)cccc4Cl)cc3)C(=O)O)CC2)C1` [Example 59], for which the results for the IC50 on integrin α4β1 and on integrin α4β7 were 100 to 2000 nM and 20 to 100 nM, respectively.

On to `CN(C)C(=O)C1(C(=O)N[C@@H](Cc2ccc(OCc3c(Cl)cccc3Cl)cc2)C(=O)O)CCCC1` [Example 8], for which the IC50 on integrin α4β1 and on integrin α4β7 was 100 to 2000 nM throughout.

For `CCC(CC)(C(=O)N[C@@H](Cc1ccc(NC(=O)c2cc(Br)ccc2Br)cc1)C(=O)O)C(=O)N1CCCC1` [Example 98], the half-inhibitory concentration (IC50) on integrin α4β1 is 20 to 100 nM; on integrin α4β7, below 20 nM.

Regarding `CCC(CC)(C(=O)N[C@@H](Cc1ccc(OCc2c(Cl)cccc2Cl)cc1)C(=O)O)C(=O)N1CCN(C(C)=O)CC1` [Example 464], the concentration for half-maximal inhibition (IC50) at integrin α4β1 fell in the range of 100 to 2000 nM; at integrin α4β7, 20 to 100 nM.

Take `CN(C)C(=O)C(C)(C)C(=O)N[C@@H](Cc1ccc(OCc2c(Cl)cccc2Cl)cc1)C(=O)O` [Example 2, N-[2-(dimethylaminocarbonyl)-2-methyl-propanoyl]-O-(2,6-dichlorobenzyl)-L-tyrosine]: the half-inhibitory concentration (IC50) on integrin α4β1 was in the range of 100 to 2000 nM; on integrin α4β7, 20 to 100 nM.

With `CCC(CC)(C(=O)N[C@@H](Cc1ccc(OCc2c(Cl)cccc2Cl)cc1)C(=O)O)C(=O)N1CCSCC1` [Example 36], the values for the IC50 at integrin α4β1 and on integrin α4β7 were 100 to 2000 nM and 20 to 100 nM, respectively.

Consider `CCC(CC)(C(=O)NC(Cc1ccc(OCc2c(Cl)cccc2Cl)cc1)C(=O)O)C(=O)N1CCCC(CO)C1` (mixture of isomers) [Example 60], for which the IC50 at integrin α4β1 and on integrin α4β7 was 100 to 2000 nM throughout.

For the compound `CCC(CC)(C(=O)N[C@@H](Cc1ccc(OCc2c(Cl)cccc2Cl)cc1)C(=O)O)C(=O)N1CC[C@@H](NC)C1` [Example 64], the IC50 at integrin α4β1 was 100 to 2000 nM; on integrin α4β7, 20 to 100 nM.

Regarding `CCC(CC)(C(=O)N[C@@H](Cc1ccc(NC(=O)c2snnc2-c2ccccc2)cc1)C(=O)O)C(=O)N1CCCC1` [Example 93], the IC50 is 100 to 2000 nM on integrin α4β1 and below 20 nM on integrin α4β7.

`CCC(CC)(C(=O)N[C@@H](Cc1ccc(OCc2c(Cl)cccc2Cl)cc1)C(=O)O)C(=O)N(C)C` [Example 3]: the half-maximal inhibitory concentration (IC50) at integrin α4β1 was 100 to 2000 nM; at integrin α4β7, below 20 nM.
